The numbers were not newly measured in patent US9314429B2, “Rapidly dispersible dosage form of oxcarbazepine” (APRECIA PHARMACEUTICALS COMPANY, priority 2013, dated 2016), which cites them from elsewhere.

In the case of `NC(=O)N1c2ccccc2CC(=O)c2ccccc21` [OXC, 10,11-Dihydro-10-oxo-5H-dibenz[b,f]azepine-5-carboxamide], the water solubility entry is given as “poorly water soluble”.
